Measured values reported in PubChem BioAssay (NCI).
Where “and” joins values, the source holds several entries; their conditions need not be identical. Equal values may be shown once.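 Following 48 hours of exposure in 96-well plates, responses at five concentrations were used to interpolate endpoints linearly. GI50: concentration for 50% inhibition of growth. TGI: concentration producing complete growth inhibition.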

Tests used:
Assay in all cases: NCI tumour cell line growth inhibition, 48 h
MCF7 breast = tested on: MCF7 breast
KM12 colon = tested on: KM12 colon
A498 renal = tested on: A498 renal
NCI/ADR-RES ovarian = tested on: NCI/ADR-RES ovarian
COLO 205 colon = tested on: COLO 205 colon
SW-620 colon = tested on: SW-620 colon
HL-60(TB) leukemia = tested on: HL-60(TB) leukemia
NCI-H522 lung = tested on: NCI-H522 lung
MDA-MB-435 = tested on: MDA-MB-435
SK-MEL-2 melanoma = tested on: SK-MEL-2 melanoma

COc1ccc(-c2cc(/C=C3\C(=O)Nc4ccc(Cl)cc43)[nH]n2)cc1
GI50 (MCF7 breast): 2.43 µM | TGI (MCF7 breast): 11.8 µM | GI50 (KM12 colon): 3.96 µM | TGI (KM12 colon): 19.6 µM | GI50 (A498 renal): 3.83 µM | TGI (A498 renal): 16.3 µM | GI50 (NCI/ADR-RES ovarian): 3.85 µM | TGI (NCI/ADR-RES ovarian): 17.7 µM | GI50 (COLO 205 colon): 2.08 µM | TGI (COLO 205 colon): 4.7 µM | GI50 (SW-620 colon): 4.01 µM | TGI (SW-620 colon): 15.5 µM | GI50 (HL-60(TB) leukemia): 3.04 µM | TGI (HL-60(TB) leukemia): 10.4 µM | GI50 (NCI-H522 lung): 2.03 µM | TGI (NCI-H522 lung): 5.67 µM | GI50 (MDA-MB-435): 1.86 µM | TGI (MDA-MB-435): 4.47 µM

O=C1C[C@@H]2C(COC(=O)c3ccccc3)N(OCc3ccccc3)C[C@@H]2O1 (stereo partly specified)
TGI (KM12 colon): > 100 µM | TGI (A498 renal): > 100 µM | TGI (COLO 205 colon): > 100 µM | TGI (SW-620 colon): > 100 µM | TGI (SK-MEL-2 melanoma): > 100 µM | TGI (HL-60(TB) leukemia): > 100 µM | TGI (NCI-H522 lung): > 100 µM

O=[N+]([O-])c1ccc(N/N=C/c2c(O)ccc3ccccc23)nc1
GI50 (MCF7 breast): 1.91 µM | TGI (MCF7 breast): > 100 µM | GI50 (KM12 colon): 8.73 µM | TGI (KM12 colon): > 100 µM | GI50 (A498 renal): > 100 µM | TGI (A498 renal): > 100 µM | GI50 (NCI/ADR-RES ovarian): 1.82 µM | TGI (NCI/ADR-RES ovarian): > 100 µM | GI50 (COLO 205 colon): 30.5 µM | TGI (COLO 205 colon): > 100 µM | GI50 (SW-620 colon): 3.61 µM | TGI (SW-620 colon): > 100 µM | GI50 (SK-MEL-2 melanoma): > 100 µM | TGI (SK-MEL-2 melanoma): > 100 µM | GI50 (NCI-H522 lung): 3.74 µM | TGI (NCI-H522 lung): > 100 µM | GI50 (MDA-MB-435): 55.2 µM | TGI (MDA-MB-435): > 100 µM

NC(=O)N/N=C/C(/C=N/NC(N)=O)[N+](=O)[O-]
TGI (KM12 colon): > 100 µM | TGI (A498 renal): > 100 µM | TGI (COLO 205 colon): > 100 µM | TGI (SW-620 colon): > 100 µM | TGI (SK-MEL-2 melanoma): > 100 µM | TGI (HL-60(TB) leukemia): > 100 µM | TGI (NCI-H522 lung): > 100 µM

CC(=O)OCCOCNC(=S)N/N=C(\C)c1cnc2ccccc2n1
TGI (KM12 colon): > 100 µM | TGI (A498 renal): > 100 µM | TGI (COLO 205 colon): 36.9 µM | TGI (SW-620 colon): > 100 µM | TGI (SK-MEL-2 melanoma): > 100 µM | TGI (HL-60(TB) leukemia): 80.8 µM | TGI (NCI-H522 lung): 76.7 µM

CO/C1=C\C(C)=C\C(C)C(O)C(C)C/C(C)=C/C=C/C(OC)C(C(C)C(O)C(C)C2(O)CC(O)C(C)C(C(C)C)O2)OC1=O (stereo unspecified)
TGI (KM12 colon): 15 µM | TGI (SK-MEL-2 melanoma): 0.0141 µM and 0.0178 µM | TGI (HL-60(TB) leukemia): 0.0136 µM | TGI (MDA-MB-435): 0.0042 µM

CCNC(=O)C#CC(=O)NCC
GI50 (KM12 colon): > 10 µM | TGI (KM12 colon): > 100 µM | GI50 (A498 renal): > 100 µM | TGI (A498 renal): > 100 µM | TGI (COLO 205 colon): > 100 µM | GI50 (SW-620 colon): > 10 µM | TGI (SW-620 colon): > 87.7 µM | GI50 (SK-MEL-2 melanoma): > 10 µM | TGI (SK-MEL-2 melanoma): > 100 µM | GI50 (HL-60(TB) leukemia): > 10 µM | TGI (HL-60(TB) leukemia): > 53.9 µM | TGI (NCI-H522 lung): > 100 µM

Cc1nc2c(n1C(C)(C)C)C(=O)c1ccccc1C2=O
TGI (KM12 colon): > 100 µM | TGI (COLO 205 colon): > 100 µM | TGI (SW-620 colon): > 100 µM | TGI (SK-MEL-2 melanoma): > 100 µM | TGI (HL-60(TB) leukemia): > 100 µM | TGI (NCI-H522 lung): > 100 µM

COc1ccccc1-c1cc(=O)c2ccccc2[nH]1
TGI (KM12 colon): > 100 µM | TGI (COLO 205 colon): > 100 µM | TGI (SW-620 colon): > 100 µM | TGI (HL-60(TB) leukemia): > 100 µM | TGI (NCI-H522 lung): > 100 µM

CC(C)(C)NCc1cc(C(C)(C)C)cc(-c2ccc(Cl)cc2)c1O
TGI (MCF7 breast): 32.7 µM | TGI (KM12 colon): 27.1 µM | TGI (NCI/ADR-RES ovarian): 32.4 µM | TGI (COLO 205 colon): 23.8 µM | TGI (SK-MEL-2 melanoma): 37.9 µM | TGI (HL-60(TB) leukemia): 23.4 µM | TGI (NCI-H522 lung): 24.8 µM | TGI (MDA-MB-435): 25.2 µM

ClC(Cl)c1nc(-c2cccnc2)n2nc(-c3ccccc3)cc2n1
GI50 (A498 renal): 0.0299 µM | TGI (A498 renal): 2.17 µM | GI50 (NCI/ADR-RES ovarian): 1.14 µM | TGI (NCI/ADR-RES ovarian): 4.18 µM | GI50 (COLO 205 colon): 0.592 µM | TGI (COLO 205 colon): 2.39 µM | GI50 (SW-620 colon): 0.666 µM | TGI (SW-620 colon): 5.3 µM | GI50 (HL-60(TB) leukemia): 2.18 µM | TGI (HL-60(TB) leukemia): 7.19 µM | GI50 (NCI-H522 lung): 1.67 µM | TGI (NCI-H522 lung): 6.03 µM | GI50 (MDA-MB-435): 1.34 µM | TGI (MDA-MB-435): 2.82 µM

NC(=O)c1cc(Br)cc(C2CCCCC2)c1O
GI50 (MCF7 breast): 15.8 µM | TGI (MCF7 breast): 30.8 µM | GI50 (KM12 colon): 11.7 µM | TGI (KM12 colon): 24.5 µM | GI50 (A498 renal): 1.01 µM | TGI (A498 renal): 14.8 µM | GI50 (NCI/ADR-RES ovarian): 11 µM | TGI (NCI/ADR-RES ovarian): 23.9 µM | GI50 (COLO 205 colon): 16.5 µM | TGI (COLO 205 colon): 31.1 µM | GI50 (SW-620 colon): 15.5 µM | TGI (SW-620 colon): 29.8 µM | GI50 (SK-MEL-2 melanoma): 15.8 µM | TGI (SK-MEL-2 melanoma): 29.7 µM | GI50 (HL-60(TB) leukemia): 20.9 µM | TGI (HL-60(TB) leukemia): 46.3 µM | GI50 (MDA-MB-435): 14.7 µM | TGI (MDA-MB-435): 28.8 µM

COc1cccc(NC(=O)CC(=O)N2N=C(N(CCC#N)c3ccccc3C)CC2c2ccccc2)c1 (stereo unspecified)
TGI (KM12 colon): > 100 µM | TGI (COLO 205 colon): > 100 µM | TGI (SW-620 colon): > 100 µM | TGI (SK-MEL-2 melanoma): > 100 µM | TGI (HL-60(TB) leukemia): > 100 µM | TGI (NCI-H522 lung): > 100 µM

O=C(c1ccc2ncc(-c3nc(NC4CC4)ncc3F)n2c1)N1CCOCC1
GI50 (MCF7 breast): 2.71 µM | TGI (MCF7 breast): 11 µM | GI50 (KM12 colon): 2.28 µM | TGI (KM12 colon): 11.8 µM | GI50 (A498 renal): 1.63 µM | TGI (A498 renal): 3.82 µM | GI50 (NCI/ADR-RES ovarian): 2.92 µM | TGI (NCI/ADR-RES ovarian): 19.2 µM | GI50 (SW-620 colon): 2.91 µM | TGI (SW-620 colon): > 100 µM | GI50 (SK-MEL-2 melanoma): 1.66 µM | TGI (SK-MEL-2 melanoma): 3.81 µM | GI50 (HL-60(TB) leukemia): 1.97 µM | TGI (HL-60(TB) leukemia): 5.15 µM | GI50 (NCI-H522 lung): 1.99 µM | TGI (NCI-H522 lung): 7.41 µM | GI50 (MDA-MB-435): 3.11 µM | TGI (MDA-MB-435): 14.4 µM

O=C(Nc1nc2ccccc2n1Cc1ccccc1)NC12CC3CC(CC(C3)C1)C2
TGI (KM12 colon): > 100 µM | TGI (COLO 205 colon): > 100 µM | TGI (SW-620 colon): > 100 µM | TGI (SK-MEL-2 melanoma): > 100 µM | TGI (HL-60(TB) leukemia): > 100 µM | TGI (NCI-H522 lung): > 100 µM

CN1NC2(CCCCC2)ON=C1c1ccccc1
TGI (KM12 colon): > 100 µM | TGI (A498 renal): > 100 µM | TGI (COLO 205 colon): > 100 µM | TGI (SW-620 colon): > 100 µM | TGI (HL-60(TB) leukemia): > 100 µM | TGI (NCI-H522 lung): > 100 µM

Cc1nc2sc(C(=O)Nc3cccc4ccccc34)c(N)c2cc1C(=O)c1ccccc1
GI50 (MCF7 breast): 1.53 µM | TGI (MCF7 breast): > 50 µM | GI50 (KM12 colon): 1.86 µM | TGI (KM12 colon): > 50 µM | GI50 (A498 renal): 0.15 µM | TGI (A498 renal): 1.17 µM | GI50 (NCI/ADR-RES ovarian): 1.43 µM | TGI (NCI/ADR-RES ovarian): > 50 µM | GI50 (COLO 205 colon): 1.65 µM | TGI (COLO 205 colon): > 50 µM | GI50 (SW-620 colon): 1.71 µM | TGI (SW-620 colon): > 50 µM | GI50 (SK-MEL-2 melanoma): 3.92 µM | TGI (SK-MEL-2 melanoma): > 50 µM | GI50 (HL-60(TB) leukemia): 1.45 µM | TGI (HL-60(TB) leukemia): 4.31 µM | GI50 (NCI-H522 lung): 1.52 µM | TGI (NCI-H522 lung): > 50 µM

O=C(O)CCCCCOc1cccnc1/C=N/NC1=NCCN1
TGI (KM12 colon): > 100 µM | TGI (A498 renal): > 100 µM | TGI (COLO 205 colon): > 100 µM | TGI (SW-620 colon): > 100 µM | TGI (SK-MEL-2 melanoma): > 100 µM | TGI (HL-60(TB) leukemia): > 100 µM | TGI (NCI-H522 lung): > 100 µM

COc1ccc2c(c1OC)C1=C(C2=O)c2cc3c(cc2CCN1)OCO3
TGI (KM12 colon): 78 µM | TGI (A498 renal): > 100 µM | TGI (COLO 205 colon): > 100 µM | TGI (SW-620 colon): 47.5 µM | TGI (SK-MEL-2 melanoma): 66.3 µM | TGI (HL-60(TB) leukemia): 53.9 µM

CCC(=O)C(C)C1=Nc2nnc(CCCCCCCc3nnc4n3C(=O)C(C(C)C(=O)CC)=N4)n2C1=O (stereo unspecified)
TGI (KM12 colon): > 100 µM | TGI (A498 renal): > 100 µM | TGI (COLO 205 colon): > 100 µM | TGI (SW-620 colon): > 100 µM | TGI (HL-60(TB) leukemia): > 100 µM | TGI (NCI-H522 lung): > 100 µM

CN(C)N1C(=O)c2ccccc2NC1c1ccccc1 (stereo unspecified)
TGI (MCF7 breast): > 100 µM | TGI (KM12 colon): > 100 µM | TGI (A498 renal): > 100 µM | TGI (NCI/ADR-RES ovarian): > 100 µM | TGI (COLO 205 colon): > 100 µM | TGI (SW-620 colon): > 100 µM | TGI (SK-MEL-2 melanoma): > 100 µM | TGI (NCI-H522 lung): > 100 µM | TGI (MDA-MB-435): > 100 µM
